Results taken from PMC9961069 (Metabolites, 2023).

What was measured:
[1] = tested on: MDA-MB-231 cells; assay: LC/MS-based metabolite profiling; type: cell-based, Human; conditions: 24 h; for AICAR levels with FA treatment / Orotate levels with FA supplementation: 10 μM + 300 μg/mL FA; for AICAR levels / Orotate levels / UDP level: 10 μM; for AICAR levels / Orotate levels: inhibitor alone; for UDP level: inhibitor alone versus DMSO
Procedure: For characterization by mass spectrometry, MDA-MB-231 cells were seeded at a density of 3 × 10^5 cells per well in 6-well plates. […] DMSO only and DMSO + folinic acid controls were also performed. Per condition, biological quadruplicates of approximately one million cells were harvested, washed briefly with 1 mL of 0.9% NaCl (prepared in LC/MS-grade water Fisher Scientific W6500), and extracted in 500 μL prechilled extraction buffer (80% LC/MS-grade methanol, 20% 125 mM ammonium acetate, 12.5 mM sodium ascorbate prepared in LC/MS-grade water and supplemented with aminopterin (catalog no.: 16.330; Schircks Laboratories) and isotopically labeled internal standards (17 amino acids and reduced glutathione [Cambridge Isotope Laboratories; MSK- A2-1.2 and CNLM-6245-10])) using a cell scraper. After centrifugation for 10 min, 4 °C, at maximum speed on a benchtop centrifuge (Eppendorf), the cleared supernatant was transferred to a new tube and dried using a nitrogen dryer (Reacti-Vap™ Evaporator, Thermo Fisher Scientific, TS-18826) while on ice. Once the drying process was completed, samples were reconstituted in 50 µL QReSS water (Cambridge Isotope Laboratories, MSK-QRESS-KIT) by brief sonication in a 4 °C water bath. Extracted metabolites were spun for 3 min, 4 °C, at maximum speed on a bench-top centrifuge, and cleared supernatant was transferred to LC/MS microvials (National Scientific, C5000-45B). Three microliters of each sample were pooled and serially diluted 3- and 10-fold to be used as quality controls throughout the run of each batch. Unlabeled QReSS metabolites (Cambridge Isotope Laboratories, MSK-QReSS-US-KIT) and unlabeled amino acid mix standard (Cambridge Isotope Laboratories, MSK-A2-US-1.2) were also included in the run to ensure high-quality metabolomics results.
One microliter (equivalent to 2 × 10^4 cells) of the reconstituted sample was injected into a ZIC-pHILIC 150 × 2.1 mm (5 µm particle size) column (EMD Millipore) operated on a Vanquish™ Flex UHPLC Systems (Thermo Fisher Scientific, San Jose, CA, USA). Chromatographic separation was achieved using the following conditions: buffer A was acetonitrile; buffer B was 20 mM ammonium carbonate, 0.1% ammonium hydroxide. Gradient conditions were: linear gradient from 20% to 80% B; 20–20.5 min: from 80% to 20% B; 20.5–28 min: hold at 20% B. The column oven and autosampler tray were held at 25 °C and 4 °C, respectively.
Mass spectrometry data acquisition was performed using a QExactive benchtop orbitrap mass spectrometer equipped with an Ion Max source and a HESI II probe (Thermo Fisher Scientific, San Jose, CA, USA) and was performed in positive and negative ionization mode in a range of m/z = 70–1000, with the resolution set at 70,000, the AGC target at 1 × 10^6, and the maximum injection time (Max IT) at 20 msec. For nucleotide tSIM scans, the resolution was set at 70,000, the AGC target was 1 × 10^5, and the max IT was 100 msec.
Manual curation and integration of chromatographic peaks were performed with TraceFinder 4.1 (Thermo Fisher Scientific, Waltham, MA, USA) using a 5 ppm mass tolerance and referencing an in-house library of chemical standards. Data from TraceFinder were further consolidated and normalized with an in-house R script: (https://github.com/FrozenGas/KanarekLabTraceFinderRScripts/blob/main/MS_data_script_v2.4_20221018.R (accessed on 22 November 2022)). Briefly, this script performs normalization and quality control steps: (1) extracts and combines the peak areas from TraceFinder output .csvs; (2) calculates and normalizes to an averaged factor from all mean-centered chromatographic peak areas of isotopically labeled amino acids internal standards within each sample; (3) filters out low-quality metabolites based on user inputted cut-offs calculated from pool reinjections and pool dilutions; (4) calculates and normalizes for biological material amounts based on the total integrated peak area values of high-confidence metabolites. […]

[2] = tested on: MDA-MB-468 cells; assay: Resazurin viability assay with or without folinic acid, MDA-MB-468; type: cell-based, Human; conditions: 72 h; for Rescue of viability impairment by folinic acid: MDA-MB-468, 10 μM ± 300 μg/mL FA
Procedure: The incorporation and metabolism of resazurin to resorufin was used to monitor cell viability. MDA-MB-468, MCF7, and MDA-MB-231 cells were grown in 96-well plates with a total of 5000 cells per well in a total volume of 180 μL for 24 h, as described above. After 24 h of growth, cells were treated with increasing concentrations of compounds (0.0457–100 μM) for 72 h. A vehicle control was also performed. […] The volume of treatment added to each well was 20 μL. For folinic acid rescue experiments, 5000 cells were treated with 10 μM compound with or without 300 μg/mL folinic acid (Supelco). After 72 h of treatment, resazurin was added to a final concentration of 44 μM, and cells were incubated for an additional 4 h at 37 °C. The fluorescence of resorufin was monitored on a Synergy MX microplate reader (BioTek) using an excitation wavelength of 540 nm and an emission wavelength of 600 nm. Percent viability relative to the DMSO control was determined. Each treatment was performed in triplicate, and each individual experiment was repeated three times (n = 3).

[3] = tested on: leukemia; parameters: method as in PMID 5479856, PMID 5479852, PMID 5241406; conditions: early studies in the 1970s; cited from earlier work

SMILES	AICAR levels with FA treatment [1]	Orotate levels with FA supplementation [1]	AICAR levels [1]	Orotate levels [1]	UDP level [1]	Rescue of viability impairment by folinic acid [2]	Anti-leukemic activity in vivo [3]	Relative Viability (%) – Inhibitor + FA Treatment ([2]; MDA-MB-468, 10 μM + 300 μg/mL folinic acid)	Relative Viability (%) – Inhibitor Alone ([2]; MDA-MB-468, 10 μM, relative to DMSO)
CC1(C)N=C(N)N=C(N)N1c1ccc(Cl)cc1 [Cyc, Cycloguanil]	returned AICAR to the same levels as vehicle controls	returned orotate to vehicle control levels	much larger increases in AICAR	decreased or statistically insignificant changes in orotate levels	significantly depleted	–	–	–	–
CCc1nc(N)nc(N)c1-c1ccc(Cl)cc1 [Pyr, Pyrimethamine]	returned AICAR to the same levels as vehicle controls	returned orotate to vehicle control levels	much larger increases in AICAR	decreased or statistically insignificant changes in orotate levels	significantly depleted	statistically significant rescue	–	–	–
CC1(C)N=C(N)N=C(N)N1c1ccc(CCCCc2ccc(S(=O)(=O)F)cc2)c(Cl)c1 [compound 127159]	further increased AICAR	orotate remained elevated in the presence of FA	increased slightly, yet significantly	stark increase in orotate levels	not upon treatment with MTX and 127159 alone	rescued in all but MDA-MB-468 cells	promising anti-leukemic activity in vivo	77.23 ± 7.2%	70.45 ± 7.8%
